Source: patent EP4745118A1, “HYDROXAMIC ACID COMPOUND OR PHARMACEUTICALLY ACCEPTABLE SALT THEREOF, AND USE THEREOF AND PREPARATION METHOD THEREFOR” (priority 2023, dated 2025)
pIC50: −log10 of the molar value. In brackets after ≈: the same amount, converted by molar mass. Like-named read-outs stand apart in the source and are kept apart here.

What was measured:
Citrobacter freundii = experiment: In vitro antibacterial activity, agar dilution method (MIC); type: cell-based
Procedure: (§1) According to the relevant operating procedures of the Clinical Laboratory Standards Institute (CLSI) in the United States, an antimicrobial susceptibility testing was conducted using the agar dilution method. […]. The agar was allowed to solidify and set aside for later use.
(§2) The test bacteria were propagated in broth and adjusted to a turbidity of 0.5 McFarland (approximately 1-2 × 10^8 CFU/mL) using a turbidimeter before inoculation. The 0.5 McFarland bacterial solution was then diluted 10-fold in broth (approximately 1-2 × 10^7 CFU/mL). A multipoint inoculator was used to inoculate the above bacterial solution onto a series of plates containing different concentrations of drugs (with an inoculation amount of approximately 10^4 CFU per inoculation site). After incubation at a constant temperature of 35°C for 18 hours, results were observed. The minimum concentration of drugs contained in sterile growth plates was determined as the Minimal Inhibitory Concentration (MIC).

Enterobacter aerogenes = experiment: as above; type: cell-based; conditions: Klebsiella aerogenes
Procedure: as §1, §2

Escherichia coli = experiment: as above; type: cell-based; conditions: Escherichia coli, agar dilution, 35°C
Procedure: as §1, §2

Klebsiella pneumoniae = experiment: as above; type: cell-based; conditions: Klebsiella pneumoniae, agar dilution, 35°C
Procedure: as §1, §2

Pantoea agglomerans = experiment: as above; type: cell-based
Procedure: as §1, §2

Proteus mirabilis = experiment: as above; type: cell-based
Procedure: as §1, §2

Proteus vulgaris = experiment: as above; type: cell-based
Procedure: as §1, §2

Pseudomonas aeruginosa = experiment: as above; type: cell-based
Procedure: as §1, §2

Serratia marcescens = experiment: as above; type: cell-based
Procedure: as §1, §2

Enterobacter cloacae = experiment: as above; type: cell-based
Procedure: According to the relevant operating procedures of the Clinical Laboratory Standards Institute (CLSI) in the United States, an antimicrobial susceptibility testing was conducted using the agar dilution method. […] The agar was allowed to solidify and set aside for later use.
as §2

[1] = target: T1, recombinant Escherichia coli LpxC enzyme (rLpxC) (Escherichia coli, UniProt P0A725); experiment: Inhibition of recombinant Escherichia coli LpxC enzyme activity (LC-MS); type: biochemical; conditions: 37°C, 30 minutes reaction, substrate UDP-3-O (R-hydroxytetradecanoyl)-N-acetylglucosamine
T1 sequence (P0A725 1-305): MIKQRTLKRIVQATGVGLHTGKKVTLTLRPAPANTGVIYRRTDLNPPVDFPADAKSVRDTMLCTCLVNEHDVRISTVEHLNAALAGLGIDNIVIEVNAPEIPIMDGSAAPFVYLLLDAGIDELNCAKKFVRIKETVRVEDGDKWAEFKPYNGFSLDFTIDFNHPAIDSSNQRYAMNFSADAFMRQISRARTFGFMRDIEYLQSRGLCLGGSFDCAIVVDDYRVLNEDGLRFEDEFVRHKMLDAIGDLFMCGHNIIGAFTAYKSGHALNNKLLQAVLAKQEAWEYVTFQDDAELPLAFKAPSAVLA
Procedure: Preparation of recombinant Escherichia coli LpxC enzyme (rLpxC). 2 µL of recombinant Escherichia coli LpxC enzyme (6.29 mg/mL) was added to 18 µL of distilled water. After thorough mixing, 2 µL of this mixture was added to 1042.4 µL of distilled water and mixed well to prepare a 36 nM working solution.
The substrate was UDP-3-O (R-hydroxytetradecanoyl)-N-acetylglucosamine, with UDP-α-D-N-Acetylglucosamine Disodium Salt as the internal standard. Mobile phase A: 90% water-10% acetonitrile containing 10 mM ammonium acetate; B: acetonitrile.
Reaction system: Corresponding solutions were prepared as per the table below, and placed in a 37°C metal bath, and mixed at 300 rpm for 10 minutes. After mixing for 10 minutes, 10 µl of 250 µM substrate was added to each group to initiate the reaction, and placed in a 37°C metal bath and reacted at 300 rpm for 30 minutes.
Termination solution: 1.1 µL of 1 mM internal standard was added to 2 mL of acetonitrile. 1.5 mL of EP tubes were taken and 100 µL of termination solution was added to each EP tube. The concentration of the internal standard in the final 350 µL system is 100 ng/mL.
Detection: 10 µL of reaction solution was added to 100 µL of the termination solution in an EP tube, mixed thoroughly, and then 240 µL of distilled water was added and mixed well, centrifuged at 14,000 rpm for 5 minutes. 70 µL of supernatant was transferred to an LC-MS vial and API 6500 Qtrap LC-MS system was used to measure substrates and metabolites. The median inhibition concentrations (IC50) of the four optical isomers and ACHN-975 against rLpxC enzyme were calculated. Table 4 Inhibitory activity of 4 optical isomers and control drug against recombinant Escherichia coli LpxC enzyme

Vero cells = experiment: Vero cytotoxicity (CCK-8); type: cell-based; conditions: Chlorocebus sabaeus
Procedure: All liquid was transferred to a 15 mL centrifuge tube and centrifuged at 800 rpm for 5 min. […] A cell counter was used to measure cell density. Cells were inoculated at 100 µL and a density of 3 × 10^5/mL into a 96-well plate, with 6 replicates per group, and incubated at 37°C for 4 hours to allow cells to adhere to the wall. The compound was twofold continuously diluted with PBS, and 10 µL of the compound with the corresponding concentration was added to the 96-well plate, and shaken and mixed well on a shaker, and then incubated at 37°C for 24 hours. 10 µL of CCK-8 reagent was added to the 96-well plate, mixed thoroughly on a shaker, and incubated at 37°C for 2 hours. A microplate reader was used to measure the absorbance at 450 nm wavelength, and the inhibition rate of the compound on Vero cells was calculated. Table 5 Vero cytotoxicity of 4 optical isomers and control drug

[2] = ATCC35218, 18 h, Escherichia coli ATCC 35218 (ESBLs-producing), 18 hours, read-out: MIC
[3] = 18 h, Klebsiella pneumoniae 18-8 (ESBLs-producing), 18 hours, read-out: MIC
[4] = ATCC700603, 18 h, Klebsiella pneumoniae ATCC 700603 (ESBLs-producing), 18 hours, read-out: MIC

CC(C)(N)[C@H](NC(=O)c1ccc(C#CC#C[C@@H]2C[C@H]2CO)cc1)C(=O)NO [ACHN-975]
MIC (Citrobacter freundii; Citrobacter freundii, ATCC43864, 18 h): 0.5 µg/mL (≈ 1.35 µM)
MIC (Enterobacter aerogenes; ATCC13048, 18 h): 1 µg/mL (≈ 2.71 µM)
MIC (Escherichia coli; 18 h, Escherichia coli 13-43 (mcr-1)): 0.5 µg/mL (≈ 1.35 µM)
MIC (Escherichia coli; 18 h, Escherichia coli 17-R28 (CRE, NDM-1-producing)): 0.5 µg/mL (≈ 1.35 µM)
MIC (Escherichia coli; ATCC2469, 18 h, Escherichia coli ATCC 2469 (CRE, NDM-1-producing), 18 hours): 0.5 µg/mL (≈ 1.35 µM)
MIC (Escherichia coli; [2]): 0.5 µg/mL (≈ 1.35 µM)
MIC (Klebsiella pneumoniae; 18 h, Klebsiella pneumoniae 09-20 (mcr-1)): 1 µg/mL (≈ 2.71 µM)
MIC (Klebsiella pneumoniae; 18 h, Klebsiella pneumoniae 17-R27 (CRE)): 2 µg/mL (≈ 5.41 µM)
MIC (Klebsiella pneumoniae; [3]): 1 µg/mL (≈ 2.71 µM)
MIC (Klebsiella pneumoniae; [4]): 4 µg/mL (≈ 10.8 µM)
MIC (Klebsiella pneumoniae; ATCCBAA2146, 18 h, Klebsiella pneumoniae ATCC BAA-2146 (CRE, NDM-1-producing), 18 hours): 4 µg/mL (≈ 10.8 µM)
MIC (Pantoea agglomerans; Pantoea agglomerans, ATCC27993, 18 h): 4 µg/mL (≈ 10.8 µM)
MIC (Proteus mirabilis; Proteus mirabilis, ATCC49565, 18 h): 2 µg/mL (≈ 5.41 µM)
MIC (Proteus vulgaris; Proteus vulgaris, ATCC29905, 18 h): 0.06 µg/mL (≈ 0.162 µM)
MIC (Pseudomonas aeruginosa; Pseudomonas aeruginosa, PAO1, 18 h): 0.25 µg/mL (≈ 0.677 µM)
MIC (Serratia marcescens; Serratia marcescens, ATCC21074, 18 h): 0.25 µg/mL (≈ 0.677 µM)
MIC (Enterobacter cloacae; Enterobacter cloacae, 18 h): 4 µg/mL (≈ 10.8 µM)
pIC50 [1]: 8.97
pIC50 (Vero cells; Vero, 24 h): < 3.89

COC[C@H]1C[C@H]1C#CC#Cc1ccc(C(=O)N[C@H](C(=O)NO)C(C)(C)N)cc1 [Ic, N-(S)-3-amino-1-hydroxyamino-3-methyl-1-oxobutan-2-yl-4-[[(1R,2S)-2-(methoxymethylene)cyclopropyl]but-1,3-diynyl]benzamide]
MIC (Citrobacter freundii; ATCC43864, Citrobacter freundii ATCC 43864, agar dilution, 35°C, 18 hours, read-out: MIC): 0.25 µg/mL (≈ 0.652 µM)
MIC (Enterobacter aerogenes; ATCC13048, Enterobacter aerogenes ATCC 13048, agar dilution, 35°C, 18 hours, read-out: MIC): 0.5 µg/mL (≈ 1.3 µM)
MIC (Escherichia coli; 18 h, Escherichia coli 13-43 (mcr-1), 18 hours, read-out: MIC): 0.25 µg/mL (≈ 0.652 µM)
MIC (Escherichia coli; 18 h, Escherichia coli 17-R28 (CRE, NDM-1-producing), 18 hours, read-out: MIC): 0.12 µg/mL (≈ 0.313 µM)
MIC (Escherichia coli; ATCC2469, 18 h, Escherichia coli ATCC 2469 (CRE, NDM-1-producing), 18 hours, read-out: MIC): 0.12 µg/mL (≈ 0.313 µM)
MIC (Escherichia coli; [2]): 0.12 µg/mL (≈ 0.313 µM)
MIC (Klebsiella pneumoniae; 18 h, Klebsiella pneumoniae 09-20 (mcr-1), 18 hours, read-out: MIC): 0.25 µg/mL (≈ 0.652 µM)
MIC (Klebsiella pneumoniae; 18 h, Klebsiella pneumoniae 17-R27 (CRE), 18 hours, read-out: MIC): 0.5 µg/mL (≈ 1.3 µM)
MIC (Klebsiella pneumoniae; [3]): 0.06 µg/mL (≈ 0.156 µM)
MIC (Klebsiella pneumoniae; [4]): 1 µg/mL (≈ 2.61 µM)
MIC (Klebsiella pneumoniae; ATCCBAA2146, 18 h, Klebsiella pneumoniae ATCC BAA-2146 (CRE, NDM-1-producing), 18 hours, read-out: MIC): 2 µg/mL (≈ 5.22 µM)
MIC (Pantoea agglomerans; ATCC27993, Pantoea agglomerans ATCC 27993, agar dilution, 35°C, 18 hours, read-out: MIC): 0.5 µg/mL (≈ 1.3 µM)
MIC (Proteus mirabilis; ATCC49565, Proteus mirabilis ATCC 49565, agar dilution, 35°C, 18 hours, read-out: MIC): 0.5 µg/mL (≈ 1.3 µM)
MIC (Proteus vulgaris; ATCC29905, Proteus vulgaris ATCC 29905, agar dilution, 35°C, 18 hours, read-out: MIC): 0.12 µg/mL (≈ 0.313 µM)
MIC (Pseudomonas aeruginosa; Pseudomonas aeruginosa PAO1, agar dilution, 35°C, 18 hours, read-out: MIC): 0.5 µg/mL (≈ 1.3 µM)
MIC (Serratia marcescens; ATCC21074, Serratia marcescens ATCC 21074, agar dilution, 35°C, 18 hours, read-out: MIC): 0.25 µg/mL (≈ 0.652 µM)
MIC (Enterobacter cloacae; Enterobacter cloacae CDC1000654 (NDM-1-producing), agar dilution, 35°C, 18 hours, read-out: MIC): 1 µg/mL (≈ 2.61 µM)
pIC50 [1]: 9.04
pIC50 (Vero cells; Vero cells, 24 hours incubation, CCK-8, read-out: IC50): < 3.89
